Measurements reported in ChEMBL document CHEMBL1201862, “PubChem BioAssay data set” (2004).
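Method: 48-hour compound exposure of cells in 96-well plates, five concentrations, linear interpolation of endpoints. Abbreviation: GI50, concentration required for 50% inhibition of growth.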 Active and inactive are the calls of the source. Cut-off read from the data, not from the text of the source: active = GI50 up to about 1.1 µM and inactive = higher. Where a SMILES comes first, the peptide text is derived from it. [ ]: non-standard residue; d: D form. The star is where a group is joined. Iva = CC[C](C)(N)C(=O)O; Boc = CC(C)(C)OC(=O)*; X54 = C1CCC(=NO*)C1

Experiments:
Experiment in all cases: DTP human tumour cell line panel, 48 h
[1] = system: SNB-78
[2] = system: HOP-18
[3] = system: DMS-273
[4] = system: DU-145
[5] = system: MDA-MB-435
[6] = system: BT-549
[7] = system: PC-3
[8] = system: RXF 631

Row | SMILES | GI50 [1] | GI50 [2] | GI50 [3] | GI50 [4] | GI50 [5] | GI50 [6] | GI50 [7] | GI50 [8]
1 | CC1=NN(C(=O)c2ccc(C)cc2)C(=O)C1/N=N/c1ccccc1C(=O)O (stereo unspecified) | > 94 µM (inactive) | > 100 µM (inactive) | > 100 µM (inactive) |  |  |  |  | 
2 | COc1cc2cc[n+]3c(C)c4cc(OC)c(OC)cc4c([O-])c3c2cc1OC | > 100 µM (inactive) |  | 53.6 µM (inactive) |  |  |  |  | 
3 | COc1ccc(/C=N/n2cnc3c(c2=O)SC(=C(C#N)C#N)N3c2ccccc2)cc1 |  | 50.7 µM (inactive) |  |  |  |  |  | 
4 | COc1cc(C(O)(CC#N)c2cc3c(cc2Br)OCO3)cc(OC)c1OC (stereo unspecified) |  |  |  | 33.5 µM (inactive) | 3 µM (inactive) | > 100 µM (inactive) | 28.1 µM (inactive) | 
5 | CSc1cc(=O)n2c3ccccc3c3ccnc1c32 | > 70.8 µM (inactive) |  | 79.6 µM (inactive) |  |  |  |  | 
6 | CCOC(=O)c1ccc(N2C(=O)/C(=C/c3ccc(N(CCC#N)CCC#N)cc3)N=C2c2cc([N+](=O)[O-])ccc2Cl)cc1 | > 100 µM (inactive) | > 100 µM (inactive) | > 100 µM (inactive) |  |  |  |  | > 100 µM (inactive)
7 | CC(=O)c1ccc(Oc2ccc(/C(C)=N\N=C(N)N)cc2)cc1 | 2.8 µM (inactive) |  |  |  |  |  |  | 
8 | C/C(=N/NC(=O)c1ccncc1)C(F)(F)F |  |  |  | > 100 µM (inactive) | > 100 µM (inactive) | > 100 µM (inactive) | > 100 µM (inactive) | 
9 | COC(=O)/C=C\Sc1ccn(/C=C\C(=O)OC)c(=S)n1 |  |  |  | > 100 µM (inactive) | 23.1 µM (inactive) | 22.9 µM (inactive) | 19.1 µM (inactive) | 
10 | CC(Oc1ccc(Oc2cnc3ccc(Cl)cc3n2)cc1)C(=O)O (stereo unspecified) |  |  |  | > 88.9 µM (inactive) |  | > 80.2 µM (inactive) |  | 
11 | CCC(C)(NC(=O)C(C)NC(=O)OC(C)(C)C)C(=O)NC(C)C(=O)NC(C)(CC)C(=O)ON=C1CCCC1 (stereo unspecified) (Boc-A[Iva]A[Iva]-X54; configuration not given here) |  |  |  | > 100 µM (inactive) | > 100 µM (inactive) | > 100 µM (inactive) | > 100 µM (inactive) | 
